pIC50: −log10 of the molar value.
Target: T1, KRAS G12C and cRAF (Homo sapiens, UniProt P01116, C118S/C51S/C80L/G12C)
T1 construct: truncated version comprising amino acids 1-169
Test: AlphaScreen inhibition of KRAS G12C (GMPPNP-loaded) and cRAF RBD binding
Assay type: biochemical
Conditions: KRAS G12C preloaded with GMPPNP, 0.5 nM KRAS G12C, 0.75 nM RBD, 19-20 h compound incubation, room temperature
From the text: The ability of compounds of Formula (I), Formula (I-1), Formula (I-2), Formula (II), Formula (II-1) and Formula (II-2), and pharmaceutically acceptable salts and/or isotopologues thereof, to inhibit activity of the GTP-bound form of KRAS G12C can be tested using methods such as the in vitro assay described in Examples 308 and 309 below. Example 308 describes determining, for various compounds, the half-maximal inhibition (IC50) of KRAS G12C loaded with GTP analogue GMPPNP from binding to cRaf, as the Ras-binding domain (RBD). […]
The AlphaScreen technology was used to determine IC50S for compound inhibition of KRAS G12C (present as the Cys-light (C51S, C80L and C118S), truncated version comprising amino acids 1-169) and cRAF interaction. […] A mixture of RBD and the AlphaScreen streptavidin donor and glutathione acceptor beads diluted in 25 mM Hepes, pH 7.4, 150 mM NaCl, 5 mM MgCl2, 0.01% TritonX-100 and 2% DMSO was then added at 10 ul/well and incubated for 60-90 minutes before the samples were read for emission at 570 nm after excitation of the donor beads at 680 nm. […] IC50S were determined using nonlinear regression fit of [inhibitor]vs. response (4 parameters).
A counter assay was also set up to rule out inhibitors of the AlphaScreen technology itself. […] Samples were read and analyzed as above.

T1 sequence (P01116 1-169 isoform P01116-2 G12C/C51S/C80L/C118S): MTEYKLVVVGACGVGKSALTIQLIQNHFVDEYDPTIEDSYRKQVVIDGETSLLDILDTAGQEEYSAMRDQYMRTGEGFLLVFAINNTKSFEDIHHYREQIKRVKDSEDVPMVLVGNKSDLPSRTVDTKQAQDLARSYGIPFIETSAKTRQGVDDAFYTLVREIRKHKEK

pIC50: > 8.00
SMILES: Cc1noc(/C=C/C(=O)N2CC(CN(C)c3nc(OC[C@@]45CCCN4C[C@H](F)C5)nc4c(F)c(-c5cc(O)cc6cccc(Cl)c56)ncc34)C2)n1 [Example 98, (E)-1-(3-(((7-(8-chloro-3-hydroxynaphthalen-1-yl)-8-fluoro-2-(((2R,7aS)-2-fluorotetrahydro-1H-pyrrolizin-7a(5H)-yl)methoxy)pyrido[4,3-d]pyrimidin-4-yl)(methyl)amino)methyl)azetidin-1-yl)-3-(3-methyl-1,2,4-oxadiazol-5-yl)prop-2-en-1-one]

From patent US20250340548A1, “KRAS G12C INHIBITORS” (Frontier Medicines Corporation, priority 2021, published 2025)
